Data published in patent publication US6881841B2, “Dibenzosuberanyl piperazine derivatives and drug-resistance overcoming agents containing the derivatives” (priority 2000, dated 2005).

Legend:
[1] = tested on: Chloroquine-resistant malaria plasmodium Plasmodium chabaudi (AS strain: chloroquine-resistant (3CQ)); experiment: Test 1: resistance overcoming effect, in vivo test with chloroquine-resistant mouse malaria strain; settings: ICR male mice, days 0-3, counted on 5th day; for number of PRBCs per 10,000 red blood cells, Chloroquine 2 mg: test compound 50 mg/kg i.p. + chloroquine 2 mg/kg i.p.; for number of PRBCs per 10,000 red blood cells, Chloroquine 2 mg / number of PRBCs per 10,000 red blood cells, Chloroquine 3 mg: Control = chloroquine only; for number of PRBCs per 10,000 red blood cells, Chloroquine 3 mg: test compound 50 mg/kg i.p. + chloroquine 3 mg/kg i.p.; for number of PRBCs per 10,000 red blood cells, Chloroquine 0 mg: test compound 50 mg/kg i.p. + chloroquine 0 mg/kg i.p.
Method: With respect to Compounds 1 to 7, these invention compounds were tested for their resistance overcoming effect in an in vivo test making use of a chloroquine-resistant mouse malaria strain. The test was conducted following the following procedure.
Chloroquine-resistant malaria plasmodium Plasmodlium chabaudi (AS strain: chloroquine-resistant (3CQ)); and
Mice: ICR male mice of 4-5 weeks old (20 to 25 g)
(§1) • 1) Preparation of the compounds: Each test compound was dissolved beforehand in 1/10 volume of DMSO such that the dose of the compound to each mouse per administration would become a final concentration of 50 mg/kg/0.2 mL. The resulting solution was diluted with 0.85% physiological saline to provide a 10% DMSO suspension. • 2) Inoculation with the chloroquine-resistant malaria plasmodium, Plasmodium chabaudi (AS strain: chloroquine-resistant (3CQ): Parasitized red blood cells (PRBCs) (5×10^6 (the 6th power of 10) cells/0.2 mL) were also prepared with 0.85% physiological saline, and inoculated through the caudal vein of each mouse with a 26×½-gauge tuberculin needle. • 3) Administration of the compounds and chloroquine: Two hours after the inoculation with the plasmodium, each test compound (50 mg/kg/0.2 mL) was intraperitoneally administered with 21×½-gauge needles to three groups of mice per compound. Chloroquine solutions of three concentrations, which had been prepared with 0.85% physiological saline to give final concentrations of 0 mg/kg/0.1 mL, 2 mg/kg/0.1 mL and 3 mg/kg/0.1 mL, respectively, were then also administered intraperitoneally with 26×½-gauge tuberculin needles to the three groups of mice which had been administered with the compound. To three control groups, the three chloroquine solutions were only administered, respectively. The compound and chloroquine were administered four times in total, that is, on the 0th, 1st, 2nd and 3rd days after the inoculation with the plasmodium. • 4) Determination of effect: Every day after the inoculation with the plasmodium, the tail of each mouse was cut to a minimum at the tip thereof with scissors to cause bleeding, and a Giemsa staining specimen smeared with a thin film of the blood was prepared. On the 5th day, the number of PRBCs per 10,000 red blood cells was counted, and based on a comparison of the PRBC number with the corresponding number of the group administered only with chloroquine, the chloroquine resistance overcoming effect of the test compound was determined.

[2] = tested on: Chloroquine-resistant malaria plasmodium Plasmodium chabaudi (AS strain: chloroquine-resistant (3CQ)); experiment: Test 2: resistance overcoming effect of Compound 8, as Test 1 but determined on the fourth day; type: in vivo; settings: for number of PRBCs per 10,000 red blood cells, Chloroquine 2 mg: test compound 50 mg/kg i.p. + chloroquine 2 mg/kg i.p.; for number of PRBCs per 10,000 red blood cells, Chloroquine 2 mg / number of PRBCs per 10,000 red blood cells, Chloroquine 3 mg: Control = chloroquine only; for number of PRBCs per 10,000 red blood cells, Chloroquine 3 mg: test compound 50 mg/kg i.p. + chloroquine 3 mg/kg i.p.
Method: as §1
Resistance overcoming effect of Compound 8 was tested in a similar manner as in Test 1. The time of determination of the effect was set on the fourth day.

[3] = ICR male mice, days 0-3, determined on fourth day

| Compound | number of PRBCs per 10,000 red blood cells, Chloroquine 2 mg [1] | number of PRBCs per 10,000 red blood cells, Chloroquine 3 mg [1] | number of PRBCs per 10,000 red blood cells, Chloroquine 2 mg [2, 3] | number of PRBCs per 10,000 red blood cells, Chloroquine 3 mg [2, 3] | number of PRBCs per 10,000 red blood cells, Chloroquine 0 mg [1] | number of PRBCs per 10,000 red blood cells, Chloroquine 0 mg ([2]; ICR male mice, test compound 50 mg/kg i.p. + chloroquine 0 mg/kg i.p., days 0-3, determined on fourth day) | chloroquine resistance overcoming effect (in words) ([2]; conclusion from Table 2) | melting point [°C] |
| --- | --- | --- | --- | --- | --- | --- | --- | --- |
| CCN(CC)CCCC(C)Nc1ccnc2cc(Cl)ccc12 (centres unmarked) [Control, chloroquine, reference compound] | 4900 per 10,000 red blood cells | 3750 per 10,000 red blood cells | 4525 per 10,000 red blood cells | 3600 per 10,000 red blood cells |  |  |  |  |
| C=CCCC(O)CN1CCN(C2c3ccccc3CCc3ccccc32)CC1 (centres unmarked) [Compound 3, 1-Dibenzosuberanyl-4-(2-hydroxy-5-hexenyl)-piperazine] |  | 292 per 10,000 red blood cells |  |  | 4500 per 10,000 red blood cells |  |  |  |
| CCCCCCCCC(O)CN1CCN(C2c3ccccc3CCc3ccccc32)CC1 (centres unmarked) [Compound 8, 1-Dibenzosuberanyl-4-(2-hydroxydecanyl)piperazine] |  |  | 4875 per 10,000 red blood cells | 3025 per 10,000 red blood cells |  | 7475 per 10,000 red blood cells | overcoming of chloroquine resistance |  |
| C=CC(CO)N1CCN(C2c3ccccc3CCc3ccccc32)CC1 (centres unmarked) [Compound 5, 1-Dibenzosuberanyl-4-(1-hydroxybutan-3-en-2-yl)piperazine] |  | 0 per 10,000 red blood cells |  |  |  |  |  | 123 |
| C=CCCCCCCC(O)CN1CCN(C2c3ccccc3CCc3ccccc32)CC1 (centres unmarked) [Compound 1, 1-Dibenzosuberanyl-4-(2-hydroxydecan-9-en-1-yl)piperazine] | 3100 per 10,000 red blood cells | 280 per 10,000 red blood cells |  |  | 4250 per 10,000 red blood cells |  |  |  |
| C=CC(O)CN1CCN(C2c3ccccc3CCc3ccccc32)CC1 (centres unmarked) [Compound 4, 1-Dibenzosuberanyl-4-(2-hydroxy-3-butenyl)-piperazine] | 430 per 10,000 red blood cells | 0 per 10,000 red blood cells |  |  | 8000 per 10,000 red blood cells |  |  | 93 |
| OCC#CCN1CCN(C2c3ccccc3CCc3ccccc32)CC1 |  |  |  |  |  |  |  | 129 |
| C=CCCCCC(O)CN1CCN(C2c3ccccc3CCc3ccccc32)CC1 (centres unmarked) [Compound 2, 1-Dibenzosuberanyl-4-(2-hydroxy-7-octenyl)-piperazine] | 0 per 10,000 red blood cells | 0 per 10,000 red blood cells |  |  | 8450 per 10,000 red blood cells |  |  |  |
